# In PubChem BioAssay (NCI):
#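 Assay format: 96-well plates, 48-hour exposure. TGI marks complete inhibition of growth.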
# Experiments:
# Experiment in all cases: growth of human tumour cells (NCI), 48 h
# DLD-1 colon = test system: DLD-1 colon
# DMS 114 small cell lung = test system: DMS 114 small cell lung
# DMS 273 small cell lung = test system: DMS 273 small cell lung
# HOP-18 NSCLC = test system: HOP-18 NSCLC
# KM20L2 colon = test system: KM20L2 colon
# SNB-78 CNS = test system: SNB-78 CNS
# RXF-631 renal = test system: RXF-631 renal
# XF 498 CNS = test system: XF 498 CNS
Compound,TGI (DLD-1 colon),TGI (DMS 114 small cell lung),TGI (DMS 273 small cell lung),TGI (HOP-18 NSCLC),TGI (KM20L2 colon),TGI (SNB-78 CNS),TGI (RXF-631 renal),TGI (XF 498 CNS)
CC(=O)Nc1ccc(-c2nnc(SCC(=O)Nc3ccccc3C)o2)cc1,> 100 µM,> 100 µM,> 100 µM,> 100 µM,> 100 µM,> 100 µM,–,–
COC(=O)n1c(CBr)c(Br)c2ccccc21,> 100 µM,> 100 µM,> 100 µM,–,> 100 µM,–,–,–
COc1nc2[nH]ccc2c(=O)n1C,> 100 µM,> 100 µM,> 100 µM,> 100 µM,–,> 100 µM,> 100 µM,> 100 µM
c1ccc(Nc2nnc(-c3nsc4ccccc34)o2)cc1,–,> 100 µM,> 100 µM,> 100 µM,> 100 µM,> 100 µM,–,–
Clc1ncnc2c1ncn2CCCCCCCCCCCCn1cnc2c(Cl)ncnc21,20.4 µM,3.55 µM,14.1 µM,58.3 µM,30 µM,11.2 µM,–,21.6 µM
Nc1nc(SCCC/C=C/I)nc2c1ncn2C1OC(CO)C(O)C1O (centres undefined),> 202 µM,> 202 µM,> 202 µM,> 202 µM,> 202 µM,> 202 µM,–,> 202 µM
CCOC12SC(=Nc3ccc(C)cc3)NN1C(=S)N(C)N=C2C (centres undefined),> 100 µM,> 100 µM,> 100 µM,> 100 µM,> 100 µM,–,–,–
CN1CCCCC(C(O)(c2ccccc2)c2ccccc2)C1=O (centres undefined),> 100 µM,> 100 µM,> 100 µM,> 100 µM,> 100 µM,> 100 µM,> 100 µM,> 100 µM
